# Results taken from ChEMBL document CHEMBL5291721, “A preclinical secondary pharmacology resource illuminates target-adverse drug reaction associations of marketed drugs” (Nat Commun, 2023).
# Key:
# [1] = target: T1, Alpha-2C adrenergic receptor (Homo sapiens, UniProt P18825); format: functional
# T1 sequence (P18825 whole entry): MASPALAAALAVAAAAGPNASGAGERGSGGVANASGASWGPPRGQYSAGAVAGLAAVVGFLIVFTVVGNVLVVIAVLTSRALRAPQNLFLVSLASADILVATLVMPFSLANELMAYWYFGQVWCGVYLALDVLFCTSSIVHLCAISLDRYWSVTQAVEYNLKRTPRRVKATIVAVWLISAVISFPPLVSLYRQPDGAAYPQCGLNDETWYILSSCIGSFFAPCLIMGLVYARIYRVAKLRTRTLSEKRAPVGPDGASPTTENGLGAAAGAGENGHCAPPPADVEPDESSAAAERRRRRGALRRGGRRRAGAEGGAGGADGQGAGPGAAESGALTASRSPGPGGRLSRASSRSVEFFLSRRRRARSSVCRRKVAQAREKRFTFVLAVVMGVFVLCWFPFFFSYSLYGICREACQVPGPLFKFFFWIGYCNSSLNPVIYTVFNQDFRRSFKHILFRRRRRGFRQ
# [2] = target: Acetylcholinesterase (Homo sapiens, UniProt P22303); format: functional
# Also: assay procedure not described here.
# Chain of Acetylcholinesterase (P22303 whole entry): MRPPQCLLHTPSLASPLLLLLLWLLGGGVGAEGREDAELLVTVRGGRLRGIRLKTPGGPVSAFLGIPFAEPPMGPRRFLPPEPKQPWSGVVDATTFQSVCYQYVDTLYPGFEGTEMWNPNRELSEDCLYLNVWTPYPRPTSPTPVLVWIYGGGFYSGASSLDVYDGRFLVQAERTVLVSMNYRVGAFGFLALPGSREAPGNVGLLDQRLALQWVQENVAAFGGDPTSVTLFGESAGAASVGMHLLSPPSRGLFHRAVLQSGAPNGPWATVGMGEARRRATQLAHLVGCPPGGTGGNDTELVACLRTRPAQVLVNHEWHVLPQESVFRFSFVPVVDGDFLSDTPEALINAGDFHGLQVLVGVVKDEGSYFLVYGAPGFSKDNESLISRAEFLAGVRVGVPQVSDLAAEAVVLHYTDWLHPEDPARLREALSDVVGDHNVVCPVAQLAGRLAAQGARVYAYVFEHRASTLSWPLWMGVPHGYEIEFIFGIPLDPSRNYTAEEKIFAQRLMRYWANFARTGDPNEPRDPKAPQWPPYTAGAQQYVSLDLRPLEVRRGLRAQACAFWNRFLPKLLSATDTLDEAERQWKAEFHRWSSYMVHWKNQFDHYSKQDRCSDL
structure (smiles),measurement,setting,value
Cc1[nH]cnc1CN1CCc2c(c3ccccc3n2C)C1=O [ALOSETRON],AC50,[1],9.3 µM
C=CC(=O)N1CCC[C@@H](n2nc(-c3ccc(Oc4ccccc4)cc3)c3c(N)ncnc32)C1 [IBRUTINIB],AC50,[2],> 30 µM
CN1C[C@H](CNC(=O)OCc2ccccc2)C[C@@H]2c3cccc4c3c(cn4C)C[C@H]21 [METERGOLINE],AC50,[2],1.1 µM
